Experimental data: PubChem BioAssay AID1963856 (Molecular Pharmacology Branch, DTP, NCI, 2024)

Tested on: LG0567-F671-PDC KRAS tumor spheroid viability
Assay: Anticancer human tumor LG0567-F671-PDC patient-derived lung adenocarcinoma cell line growth inhibition [KRAS2]
Conditions: spheroids with HUVEC and MSC; for viability, T/C: stronger effect = lower value
Excerpt: Multicellular complex tumor spheroid response to RAS pathway inhibitors in combination with a targeted agents in patient-derived cell lines with oncogenic KRAS variants from multiple cancer types
A high-throughput screen of multi-cell type tumor spheroids was designed to identify active combinations of targeted small molecules and KRAS pathway inhibitors. Complex spheroids include a stromal component modeled by human endothelial cells (HUVEC) and fibroblasts modeled by human mesenchymal stem cells (MSCs). The concentration ranges selected for each drug and investigational agent were based upon clinically achievable concentrations if the clinical Cmax of the agent was known.
Compounds. The drugs and investigational agents: BI-3406 (NSC825286), BAY-293 (NSC824723), batoprotafib (TNO155; NSC825523), sotorasib (AMG 510; NSC818433), MRTX1257 (NSC819558), elimusertib (BAY 1895344; NSC800525), molibresib (GSK525762; NSC774829), temuterkib (LY3214996; NSC803410), venetoclax (NSC766270), alisertib (NSC759677), olaparib (NSC753686), talazoparib (NSC767125), erdafitinib (NSC781556), ipatasertib (NSC767898), cabozantinib (NSC761068), nintedanib (NSC756659), abemaciclib (NSC768073), docetaxel (NSC628503), trametinib (NSC758246), and sapanisertib (NSC764658) were obtained from the National Cancer Institute (NCI) Developmental Therapeutics Program Chemical Repository. The FDA-approved anticancer drug set is available from the Developmental Therapeutics Program. […] The stock solutions were prepared in dimethyl sulfoxide (DMSO, Sigma-Aldrich, St. Louis, MO, cat. D2650) at 800-fold the tested concentration and stored at -70 degrees C prior to their use. All drugs and investigational agents were tested over a range starting from a high concentration at or near the clinical Cmax and decreasing in half-log increments. If the clinical Cmax for an agent had not been determined, the highest concentration tested was 10 microM.
Cell Culture. All cells were maintained in an incubator at 37 degrees C and 5% CO2 with 95% humidity. The PDC lines were cultured according to standard operating procedures established by the NCI PDMR (https://pdmr.cancer.gov/sops/default.htm). Briefly, all PDCs were thawed and cultured in Matrigel-coated flasks prepared with a working solution of 1X Ham's F-12 nutrient mix, without supplementation (Invitrogen, Waltham, MA, cat. 11765054), 100 U/mL penicillin-streptomycin (Invitrogen, cat. 15140122), and 2.5% Matrigel (Corning Inc., Corning, NY, cat. 354248) for the first three passages. All PDCs were cultured in complete DMEM/F-12 media containing advanced DMEM/F-12 (Invitrogen, cat. 12634028), 4.9% defined fetal bovine serum, heat inactivated (HyClone Laboratories Inc., Logan, UT, cat. SH30070.03HI), 389 ng/mL hydrocortisone (Sigma-Aldrich, cat. H4001), 9.7 ng/mL human EGF recombinant protein (Invitrogen, cat. PHG0313), 23.4 microg/mL adenine (Sigma-Aldrich, cat. A2786), 97.3 U/mL penicillin-streptomycin (Invitrogen, cat. 15140122), 1.9 mM L-glutamine (Invitrogen, cat. 25030081), and 9.7 microM Y-27632 dihydrochloride (Tocris Bioscience, Bristol, United Kingdom, cat. 1254). The PDCs were cultured in complete DMEM/F12 media without 9.7 microM Y-27632 dihydrochloride for at least two passages prior to the screen. The established cell line HOP-62 was cultured in RPMI 1640 medium, HEPES (Invitrogen, cat. 22400105) with 10% defined fetal bovine serum (HyClone Laboratories Inc., cat. SH30070.03) and 2 mM L-glutamine (Invitrogen, cat. 25030081). The pooled donor HUVEC were cultured in endothelial cell growth medium 2 (PromoCell, Heidelberg, Germany, cat. C-22011) and the hMSC were cultured in mesenchymal stem cell growth medium 2 (PromoCell, cat. C-28009). For all experiments, HUVEC and hMSC were used at passages </=5, while the malignant cell lines were used at passages </=15. […]

[1] = curve of first compound, second compound 0.0316 µM
[2] = curve of first compound, second compound 0.1 µM
[3] = curve of first compound, second compound 0.316 µM
[4] = curve of first compound, second compound 1 µM
[5] = curve of first compound, second compound 3.16 µM
[6] = second compound 0.0316 µM, first compound 0.0316 µM
[7] = second compound 0.0316 µM, first compound 0.1 µM
[8] = second compound 0.0316 µM, first compound 0.316 µM
[9] = second compound 0.0316 µM, first compound 1 µM
[10] = second compound 0.0316 µM, first compound 3.16 µM
[11] = second compound 0.0316 µM, first compound 10 µM
[12] = second compound 0.1 µM, first compound 0.0316 µM
[13] = second compound 0.1 µM, first compound 0.1 µM
[14] = second compound 0.1 µM, first compound 0.316 µM
[15] = second compound 0.1 µM, first compound 1 µM
[16] = second compound 0.1 µM, first compound 3.16 µM
[17] = second compound 0.1 µM, first compound 10 µM
[18] = second compound 0.316 µM, first compound 0.0316 µM
[19] = second compound 0.316 µM, first compound 0.1 µM
[20] = second compound 0.316 µM, first compound 0.316 µM
[21] = second compound 0.316 µM, first compound 1 µM
[22] = second compound 0.316 µM, first compound 3.16 µM
[23] = second compound 0.316 µM, first compound 10 µM
[24] = second compound 1 µM, first compound 0.0316 µM
[25] = second compound 1 µM, first compound 0.1 µM
[26] = second compound 1 µM, first compound 0.316 µM
[27] = second compound 1 µM, first compound 1 µM
[28] = second compound 1 µM, first compound 3.16 µM
[29] = second compound 1 µM, first compound 10 µM
[30] = second compound 3.16 µM, first compound 0.0316 µM
[31] = second compound 3.16 µM, first compound 0.1 µM
[32] = second compound 3.16 µM, first compound 0.316 µM
[33] = second compound 3.16 µM, first compound 1 µM
[34] = second compound 3.16 µM, first compound 3.16 µM
[35] = second compound 3.16 µM, first compound 10 µM
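Also: drug exposure lasted seven days after spheroids formed for three days.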
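For viability, T/C in this document: 100% = DMSO vehicle control viability.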

Structure (SMILES) | IC50 [2] [nM] | IC50 [3] [nM] | IC50 [4] [nM] | IC50 [5] [nM] | viability, T/C [12] [%] | viability, T/C [13] [%] | viability, T/C [14] [%] | viability, T/C [15] [%] | viability, T/C [16] [%] | viability, T/C [18] [%] | viability, T/C [19] [%] | viability, T/C [20] [%] | viability, T/C [21] [%] | viability, T/C [22] [%] | viability, T/C [24] [%] | viability, T/C [25] [%] | viability, T/C [26] [%] | viability, T/C [27] [%] | viability, T/C [28] [%] | viability, T/C [30] [%] | further results
CCNC(=O)CC1N=C(c2ccc(Cl)cc2)c2cc(OC)ccc2-n2c(C)nnc21 (stereo not drawn) + C=CC(=O)N1CCN(c2nc(OCC3CCCN3C)nc3c2CCN(c2cccc4cccc(C)c24)C3)CC1CC#N | < 31.6 | 2000 | < 31.6 | < 31.6 | 46.5 | 41.5 | 25.6 | 19.4 | 15.3 | 99.2 | 109 | 72.8 | 60.9 | 46.8 | 35.7 | 32.3 | 24.6 | 17.5 | 14.6 | 41.3 | IC50 [1]: 51.2 nM; viability, T/C [6]: 48.4%; viability, T/C [7]: 52.5%; viability, T/C [8]: 36.7%; viability, T/C [9]: 25.7%; viability, T/C [10]: 17.2%; viability, T/C [11]: 16.6%; viability, T/C [17]: 12.9%; viability, T/C [23]: 40.2%; viability, T/C [29]: 12.8%; viability, T/C [31]: 32.7%; viability, T/C [32]: 22.6%; viability, T/C [33]: 13.3%; viability, T/C [34]: 9.07%; viability, T/C [35]: 7.07%
CNCc1ccccc1-c1csc(C(C)Nc2nc(C)nc3cc(OC)c(OC)cc23)c1 (stereo not drawn) | – | – | – | – | – | – | – | – | – | – | – | – | – | – | – | – | – | – | – | – | viability, T/C (compound 10 µM): 0.63% [middle of 16 runs]; IC50 (compound alone, run of 07/19/2021): 1.25 µM [middle of 5 runs]; IC50 (compound alone, run of 07/26/2021): 4.92 µM [middle of 6 runs]
CC(=O)OC12COC1CC(O)C1(C)C(=O)C(O)C3=C(C)C(OC(=O)C(O)C(NC(=O)OC(C)(C)C)c4ccccc4)CC(O)(C(OC(=O)c4ccccc4)C21)C3(C)C (stereo not drawn) + C=CC(=O)N1CCN(c2nc(=O)n(-c3c(C)ccnc3C(C)C)c3nc(-c4c(O)cccc4F)c(F)cc23)C(C)C1 | < 10 | < 10 | < 10 | < 10 | 14.2 | 14.2 | 14.9 | 18.2 | 13.5 | 12 | 12.1 | 12.3 | 16.3 | 12.7 | 10.2 | 10.1 | 12 | 12.8 | 10.6 | 9.62 | IC50 (curve of first compound, second compound 10 µM): < 10 nM; viability, T/C (second compound 0.1 µM, first compound 0.01 µM): 13.4%; viability, T/C (second compound 0.316 µM, first compound 0.01 µM): 13.7%; viability, T/C (second compound 1 µM, first compound 0.01 µM): 12.6%; viability, T/C (second compound 3.16 µM, first compound 0.01 µM): 10.7%; viability, T/C [31]: 9.62%; viability, T/C [32]: 9.52%; viability, T/C [33]: 13.2%; viability, T/C [34]: 10.1%; viability, T/C (second compound 10 µM, first compound 0.01 µM): 13.7%; viability, T/C (second compound 10 µM, first compound 0.0316 µM): 14%; viability, T/C (second compound 10 µM, first compound 0.1 µM): 15.6%; viability, T/C (second compound 10 µM, first compound 0.316 µM): 14.4%; viability, T/C (second compound 10 µM, first compound 1 µM): 14.5%; viability, T/C (second compound 10 µM, first compound 3.16 µM): 12.1%
CC(C)NCC(C(=O)N1CCN(c2ncnc3c2C(C)CC3O)CC1)c1ccc(Cl)cc1 (stereo not drawn) + C=CC(=O)N1CCN(c2nc(OCC3CCCN3C)nc3c2CCN(c2cccc4cccc(C)c24)C3)CC1CC#N | < 31.6 | < 31.6 | < 31.6 | < 31.6 | 28.5 | 27.5 | 18.6 | 20.1 | 17 | 33.9 | 29.3 | 21 | 19.5 | 18.6 | 38.6 | 32.3 | 24.6 | 18.2 | 15.3 | 8.92 | IC50 [1]: < 31.6 nM; viability, T/C [6]: 36%; viability, T/C [7]: 33.7%; viability, T/C [8]: 24.6%; viability, T/C [9]: 22.8%; viability, T/C [10]: 22.4%; viability, T/C [11]: 19.8%; viability, T/C [17]: 13.4%; viability, T/C [23]: 15.4%; viability, T/C [29]: 13.3%; viability, T/C [31]: 7.61%; viability, T/C [32]: 4.92%; viability, T/C [33]: 2.79%; viability, T/C [34]: 3.43%; viability, T/C [35]: 0.37%
